SMILES strings stand for the structures.

For 87 molecules, melting point results are on record in a melting point compilation (Tetko et al.; mined from patent text by program, amines drawn as free bases though some values may be those of a salt).

Molecule `CC(C)(C)C1=CC=CC(c2ccccc2Cl)(C(C)(C)C)C1O` (configuration not stated) registered a melting point of 89.5 to 91 °C.

As to `C[Si](C)(C)C#Cc1ccc(C(=O)OCc2ccccc2)cc1OCc1ccccc1`, the melting point lay within 110 to 112 °C.

`O=C1Nc2c(ccc3ccccc23)OC1c1ccc(Cl)cc1` (configuration not stated) showed a melting point of 230 to 232 °C.

In turn, `CC1CC(C)CN(Cc2ccc(NC(=O)C#Cc3ccc(-c4ccc(Cl)cc4)cc3)cc2)C1` (configuration not stated) had a melting point of 209 to 214 °C.

Molecule `CNC(=O)c1ccc(Nc2nc(Nc3cc4c(cc3OC)CCN(CC(=O)N(C)C)CC4)ncc2Cl)c(OC)c1` returned a melting point of 138 to 147 °C.

With `Cc1sc(-c2ccccc2)nc1COc1ccc(CCC[C@@H](O)C(=O)O)cc1`, the melting point fell in the range of 117 to 118 °C.

Molecule `COc1ccc(NC(=O)c2ccc(-c3ccc(S(C)=O)cc3)c(C)c2)cc1N1CCN(C)CC1` (configuration not stated) showed a melting point of 210 to 212 °C.

Take `O=C(Cc1ccc(NC(=O)c2cn3c4c(cccc24)CCC3)cc1)NO`: the melting point was in the range of 199 to 202 °C.

As for `O=C(NNS(=O)(=O)c1ccccc1)c1ccc2ncccc2c1`, the melting point fell in the range of 211 to 214 °C.

`C[C@@H]1Cc2cc(N3C[C@H](CN)OC3=O)ccc2N1C(=O)OCc1ccccc1`: the melting point lay in the range of 120 to 122 °C.

Regarding `COc1ccc(COC(=O)c2ncn3c2[C@@H]2CCCN2C(=O)c2c(Cl)cccc2-3)cc1`, the melting point lay in the range of 185 to 186 °C.

The molecule `CC1(C)CC(=O)NC2=C1c1ccc(Cl)cc1CC2` displayed a melting point of 213 °C.

In turn, `C=CC(C)(C)CC(NC(=O)c1ccc(Cl)cc1)NC(=N[N+](=O)[O-])Nc1cccnc1` (configuration not stated) had a melting point of 186 °C.

Turning to `O=C1c2ccccc2-n2cnc(I)c2[C@@H]2CCCN12`, the melting point was 222 to 223 °C.

Take `CC(=O)OC1CCC2(C)C(=CCC3C2CCC2(C)C(C(C)CCC(=O)O)CCC32)C1` (configuration not stated): the melting point fell in the range of 192 to 193 °C.

The molecule `O=C(O)CCCc1ccccc1CC1C(=O)CC(=O)C1=O` (configuration not stated) came in with a melting point of 123 °C.

The molecule `O=[N+]([O-])c1ccc(Oc2cncc(Cl)n2)cc1` had a melting point of 125 to 127 °C.

As to `O=c1[nH][nH]c(C(F)(F)F)c1Cc1ccc(Br)cc1`, the melting point lay in the range of 135 to 136 °C.

As for `Cc1c(Cl)c(Oc2ncc(C(F)(F)F)cc2Cl)nn1C(=O)NCCCl`, the melting point was in the range of 112 to 114 °C.

On to `CCCn1c(=O)c2[nH]c(/C=C/c3ccc(OC)c(C)c3OC)nc2n(CCC)c1=O`, for which the melting point lay in the range of 255 to 256 °C.

Turning to `Cn1nc(C(F)(F)F)c(CS(=O)(=O)C2=NOC(C)(C)C2)c1Cl`, the melting point is 115 to 116 °C.

For the molecule `COc1ccc(CC(C)NCC(O)c2cccc(Br)c2)cc1` (configuration not stated), the melting point lay within 79 to 83 °C.

For `COc1ccc(-c2noc3c2C(c2ccc(OC)c(O)c2)C2=C(COC2=O)N3)cc1` (configuration not stated), the melting point was in the range of 219 to 221 °C.

Regarding `Nc1ccc2c(c1)ncn2-c1ccccc1`, the melting point fell in the range of 272 to 274 °C.

For the molecule `CCOCc1nc2c(N)nc3ccccc3c2n1C[C@H]1COC(C)(C)O1`, the melting point lay in the range of 130 to 131 °C.

Consider `O=C(NCCCCCCO)OC1CCN(C(=O)Oc2ccc(Oc3ccccc3)cc2)CC1`, for which the melting point fell in the range of 69 to 72 °C.

Consider `COc1ccc(CCN(C)C(C)(C)CO)cc1`, for which the melting point was found to be 40 °C.

`CCN(CC)C(=O)c1ccc(C(=C2CCNCC2)c2cccc(OC)c2)cc1` gave a melting point of over 90 °C.

Molecule `O=c1nc(-c2ccccc2O)oc2ccccc12` gave a melting point of 206 to 208 °C.

`COc1ccc(C(Cc2cc(Cl)nc(Cl)c2)=NO)cc1OC1CCCC1`: the melting point lay in the range of 139 to 140 °C.

As to `Cc1cc(C(=O)O)ccc1C(N)C(=O)O` (configuration not stated), the melting point was over 250 °C.

Turning to `COCCOc1cc2ncnc(NC3=CC(=O)C(Oc4ccc(C)cc4)=CC3=O)c2cc1OC`, the melting point was in the range of 171 to 172 °C.

For `CNC(=O)c1ccc2c(c1)CCOC2CCN1CCN(c2ccc(OC)cc2)CC1` (configuration not stated), the melting point lay in the range of 174 to 176 °C.

Molecule `CCCCN=C(O)c1cc([N+](=O)[O-])cc(Sc2ccccc2C(=O)O)c1C(=O)O` gave a melting point of 192 to 196 °C.

The molecule `CCOc1ccc(Cl)cc1C(N)=O` showed a melting point of 136 to 139 °C.

In turn, `CN1C(=O)N(CCCC(NS(=O)(=O)c2ccc(-c3ccc(Cl)cc3)cc2)C(=O)O)C(=O)C1(C)C` (configuration not stated) registered a melting point of 68 to 71 °C.

`Cc1ccc2onc(-c3ccc(Cl)cc3)c2c1` yielded a melting point of 95 °C.

`CCc1cccc(CC)c1NC(=O)C1c2ccccc2COc2c(C)ccc(C)c21` (configuration not stated) yielded a melting point of 104 to 106 °C.

In turn, `Cc1cc(NC(=O)c2c(Cl)cccc2Cl)c2nccc(N3CCN(C)C3=O)c2c1C` returned a melting point of 213 to 216 °C.

Turning to `CC(CN1C(=O)c2ccccc2C1=O)C(=NO)n1nc(C(C)(C)C)cc1N` (configuration not stated), the melting point lay in the range of 198 to 199 °C.

In the case of `Cc1cccc(S(=O)(=O)n2ccnc2)c1C#N`, the melting point lay in the range of 93 to 95 °C.

In the case of `CN(C)CCOC1=C(c2ccccc2)CN(Cc2ccco2)C1=O`, the melting point lay in the range of 145 to 148 °C.

Regarding `CCCCS(=O)(=O)Nc1ccc(OCc2ccc3ccccc3n2)cc1`, the melting point turned out to be 113 °C.

`O=c1cc(-c2ccncc2)nc2n1CCN2` displayed a melting point of 318 to 320 °C.

On to `CC1(C)Oc2ccc([N+](=O)[O-])cc2C(n2ccccc2=O)C1(C)O` (configuration not stated), for which the melting point is 214 °C.

For the molecule `O=c1[nH]nc(CN2CC[C@H](OCc3cc(C(F)(F)F)cc(C(F)(F)F)c3)[C@H](c3ccccc3)C2)[nH]1` (relative stereo), the melting point is 89 to 91 °C.

The molecule `O=S(=O)(c1ccc(Cl)cc1)C(c1cc(F)ccc1F)c1cc(CO)ncc1Br` (configuration not stated) gave a melting point of 172 to 173 °C.

Consider `CCOC(=O)C1=C(C)NC(CN(C)C)=C(C(=O)OCC)C1c1ccccc1/C=C/C(=O)OC(C)(C)C` (configuration not stated), for which the melting point fell in the range of 146 to 148 °C.

In turn, `CNC(=O)NC1CC(C)(C)Cc2cc(C)cc(C)c21` (configuration not stated) gave a melting point of 196 to 197 °C.

The molecule `O=C(Nc1cccc2c1C(=O)c1c-2n[nH]c1-c1ccc(C(=O)N2CCN(CCO)CC2)s1)NN1CCOCC1` had a melting point of 186 to 187 °C.

`Cc1ncc(I)nc1C` yielded a melting point of 51 to 54 °C.

`CCn1c(N)c(C(=O)NC)c(=O)c2cnc(-c3ccc(NC(=O)NCc4cccnc4)cc3)nc21`: the melting point turned out to be 250 °C.

Turning to `Cc1c(-c2ccc(S)nn2)ssc1=S`, the melting point came out at 245 °C.

With `CN1C(=O)C2(CCN(CC(O)C3COc4ccccc4O3)CC2)c2ccccc21` (configuration not stated), the melting point lay in the range of 113 to 128 °C.

As for `CCOC(=O)C1=Cc2c3c(c(C(=O)OCC)cc2=N1)=Nc1cnccc1-3`, the melting point fell in the range of 198 to 201 °C.

Molecule `CCOc1nc(NCc2ccco2)nc(Nc2ccc3nc(C)[nH]c3c2)n1` yielded a melting point of 150 to 152 °C.

The molecule `CC(C)C[C@H](NC(=O)[C@H](Cc1c[nH]cn1)NC(=O)[C@H](Cc1cccc2ccccc12)NC(=O)OCc1ccccc1)[C@H](O)CO` showed a melting point of 176 to 178 °C.

The molecule `CC(C)C(OCc1ccc(Cl)cc1)c1cncnc1` (configuration not stated) returned a melting point of 33 to 35 °C.

Turning to `Cn1ncc(N2CCCCC2)c(-c2ccccc2C=NO)c1=O`, the melting point lay within 184 to 185 °C.

`CCc1nc2c(N)nc3cc(Br)ccc3c2n1CC1CCN(C(=O)OC(C)(C)C)CC1` showed a melting point of 131 to 132 °C.

Take `Oc1ccc(CN2CCCCC2)c2cccnc12`: the melting point is 96 °C.

With `CC(=O)NCc1ccc(CN2CCN(c3ccccc3)CC2)cc1`, the melting point fell in the range of 135 to 136 °C.

For `CN1CCN(NS(=O)(=O)c2cc([N+](=O)[O-])c(Cl)s2)CC1`, the melting point is 91 °C.

In turn, `O=C1CCN(Cc2ccccc2)CC1C1c2ccccc2Oc2ccccc21` (configuration not stated) returned a melting point of 124 to 125 °C.

`CCOC(=O)Cc1cccc(N[C@@H](CCC(N)=O)C(=O)O)c1` yielded a melting point of 176 °C.

With `Oc1ncnc2c1nc(CC1CCN(CC3COc4ccccc4O3)CC1)n2Cc1ccc(F)cc1` (configuration not stated), the melting point was determined as 201 °C.

Turning to `CCCC(NC(=O)Nc1ccc(Cl)cc1)P(=O)(c1ccccc1)c1ccccc1` (configuration not stated), the melting point was 275 to 278 °C.

`CCOC(=O)N1CC=C(c2cc(F)c(C#N)cc2F)CC1`: the melting point is 85 to 87 °C.

`COc1cccc2c(CCBr)coc12` showed a melting point of 61 to 62 °C.

`CCCN(c1ccncc1)N1C(=O)C2(Cc3ccccc3C2)c2ccccc21`: the melting point lay in the range of 159 to 161 °C.

The molecule `CCOC(=O)c1c[nH]c2c(F)c(C)c(F)cc2c1=O` registered a melting point of 260 to 263 °C.

The molecule `N#Cc1c(N2CCCCC2)cc(-c2ccc(Br)cc2)c2c1Cc1ccccc1-2` yielded a melting point of 212 °C.

`NC(=O)Cc1nnc(S)o1` registered a melting point of 160 to 163 °C.

For the molecule `CC(C)(C)OC(=O)N[C@@H](CC1CCCCC1)[C@@H](O)[C@@H](O)CN=[N+]=[N-]`, the melting point lay in the range of 93 to 94 °C.

Take `O=C1C(Cl)=C(Cl)C(=O)N1c1ccc(Oc2ccccc2)cc1`: the melting point lay in the range of 180 to 181 °C.

Take `CC(=O)N1CCN(Cc2nc(-c3ccc4c(c3)Nc3ccccc3S4)cs2)CC1`: the melting point fell in the range of 218 to 220 °C.

Molecule `O=C(O)c1cnc2cc([N+](=O)[O-])ccc2n1` returned a melting point of 208 to 210 °C.

For `O=S1(=O)c2ccccc2Oc2ccccc21`, the melting point lay in the range of 145 to 146 °C.

Molecule `O=c1c2c(-c3ccc(F)cc3)n[nH]c2c2cccnc2n1-c1ccccc1` came in with a melting point of 300 °C.

In turn, `Oc1c(Cl)cc(-c2cnn3c(O)ncnc23)cc1Cl` came in with a melting point of over 300 °C.

`C(=C(c1ccccc1)c1ccccc1)c1ccc(N(c2ccccc2)c2ccc(N(c3ccccc3)c3ccccc3)cc2)cc1` showed a melting point of 218 to 219 °C.

`O=C(O)CN(CC(=O)O)c1nc(N(CC(=O)O)CC(=O)O)nc(N(CC(=O)O)CC(=O)O)n1`: the melting point was in the range of 246 to 249 °C.

Take `NC(=O)C(Nc1ccc(Cl)cc1)c1c(Cl)cccc1Cl` (configuration not stated): the melting point was 178 °C.

The molecule `CNC1=NS(=O)N=C1NCCSCc1ccc(CN(C)C)o1` (configuration not stated) yielded a melting point of 86 to 92 °C.

`CN(c1cccc2cc(-c3nccs3)[nH]c12)S(=O)(=O)c1ccsc1CO` showed a melting point of 192 °C.

`O=C(C1=C(c2ccc(O)cc2)CCc2ccccc21)c1ccc(OCCN2CCCCC2)cc1` yielded a melting point of 83 to 85 °C.

Take `CC(=O)N1CCc2c(sc(C)c2CCN2CCC(c3noc4ccc(F)cc34)CC2)C1`: the melting point was 167 to 172 °C.

By melting point is commonly meant the temperature, or range, at which the solid turns liquid.
